According to US10253081B2, “Glucagon analogues” (Zealand Pharma A/S, priority 2012, dated 2019):
*1 amine or outer side, *2 acyl side, *3 side chain or, on linkers, in order; H or OH if unused. Where a SMILES comes first, the peptide text is derived from it. Side-chain parts run from the residue outwards. The star is where a group is joined. γGlu = O=C(O)[C@H](CCC(=O)[*:2])N[*:1]; Palmitoyl = CCCCCCCCCCCCCCCC(=O)*

How the values were obtained:
[1] = molecular target: T1, endogenous glucagon receptor (Rattus norvegicus, UniProt P30082); experiment: Agonistic activity on endogenous glucagon receptor (glycogen synthesis rate in primary rat hepatocytes); type: cell-based; conditions: inhibition of glycogen synthesis rate, 3 hours, read-out: EC50 GLP-1R Rat hepat.
T1 construct: Agonistic activity of the test compounds on endogenous glucagon receptor; endogenous in cells; host or cells: primary rat hepatocytes
Outline: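 Primary rat hepatocytes (40,000 cells/well, cultured 24 h) incubated 3 h with compound in KRBH buffer with 0.1% BSA, 22.5 mM glucose and D-[U14C]glucose. 14C incorporated into precipitated glycogen counted, background-subtracted and expressed as % of 0.1% DMSO vehicle (100% CTL). pEC50 from cpm versus log concentration; agonism lowers glycogen synthesis.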

[2] = Oral glucose tolerance test (OGTT); type: in vivo, C57BL/6J mice; conditions: blood glucose AUC 0-120 min, 10 nmol/kg s.c. 4 h before oral glucose 2 g/kg
Outline: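 Male C57BL/6J mice (n=7) were fasted for 10 h and given peptide at 10 nmol/kg s.c. in phosphate-buffered saline 4 h before an oral glucose bolus of 2 g/kg; controls got vehicle. Tail-blood glucose was read by glucometer up to 120 min, and AUC was computed by the trapezoidal rule without baseline correction.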

[3] = molecular target: T2, human glucagon receptor (Glucagon-R) (Homo sapiens, UniProt P47871); experiment: Glucagon receptor efficacy assay (cAMP AlphaScreen, CHO cells); type: cell-based; conditions: Table 1A; CHO cells expressing human Glucagon-R, cAMP; read-out: EC50 hGCGR CHO-K1
T2 construct: expressed in transfected cells
Outline: (§1)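 Stably transfected CHO clones expressing human GLP-1R or glucagon receptor were treated with increasing peptide concentrations for 15 min at room temperature in KRBH containing 0.1 mM IBMX. After lysis, cAMP was quantified by AlphaScreen; EC50 and efficacy relative to GLP-1 or glucagon reference came from curve fitting.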

[4] = molecular target: T3, human glucagon-like peptide 1 receptor (GLP-1R) (Homo sapiens, UniProt P43220); experiment: GLP-1 receptor efficacy assay (cAMP AlphaScreen, CHO cells); type: cell-based; conditions: Table 1A; for EC50: CHO cells expressing human GLP-1-R, cAMP, read-out: EC50 hGLP-1R CHO-K1; for Ratio GLP-1/Glucagon: EC50 [GLP-1R]/EC50 [Glucagon-R]
T3 construct: expressed in transfected cells
Outline: as §1

T1 sequence (P30082 27-485): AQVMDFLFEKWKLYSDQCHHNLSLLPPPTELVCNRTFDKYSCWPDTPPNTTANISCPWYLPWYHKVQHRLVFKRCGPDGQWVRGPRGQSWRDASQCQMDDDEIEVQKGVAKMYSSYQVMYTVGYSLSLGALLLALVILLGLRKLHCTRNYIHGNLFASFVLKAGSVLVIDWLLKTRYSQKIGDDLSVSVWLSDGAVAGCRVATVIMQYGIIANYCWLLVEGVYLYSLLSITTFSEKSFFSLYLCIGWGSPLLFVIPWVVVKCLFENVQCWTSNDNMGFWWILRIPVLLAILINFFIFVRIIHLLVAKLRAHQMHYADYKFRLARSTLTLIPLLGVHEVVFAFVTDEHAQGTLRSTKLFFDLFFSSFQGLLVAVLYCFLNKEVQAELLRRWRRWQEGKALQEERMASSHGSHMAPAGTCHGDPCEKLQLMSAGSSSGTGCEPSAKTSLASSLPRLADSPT
T3 sequence (P43220 24-463): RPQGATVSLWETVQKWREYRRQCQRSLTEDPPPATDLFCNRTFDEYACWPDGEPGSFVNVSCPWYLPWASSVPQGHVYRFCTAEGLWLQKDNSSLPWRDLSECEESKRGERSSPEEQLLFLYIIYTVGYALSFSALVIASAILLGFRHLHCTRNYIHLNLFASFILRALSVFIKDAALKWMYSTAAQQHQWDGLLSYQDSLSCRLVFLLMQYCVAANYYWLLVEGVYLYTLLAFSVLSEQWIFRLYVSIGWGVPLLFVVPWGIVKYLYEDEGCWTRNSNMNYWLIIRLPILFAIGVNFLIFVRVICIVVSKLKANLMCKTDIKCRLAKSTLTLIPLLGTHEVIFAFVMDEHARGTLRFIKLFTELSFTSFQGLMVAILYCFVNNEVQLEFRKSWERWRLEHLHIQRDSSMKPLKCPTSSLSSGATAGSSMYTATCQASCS
T2 sequence (P47871 26-477): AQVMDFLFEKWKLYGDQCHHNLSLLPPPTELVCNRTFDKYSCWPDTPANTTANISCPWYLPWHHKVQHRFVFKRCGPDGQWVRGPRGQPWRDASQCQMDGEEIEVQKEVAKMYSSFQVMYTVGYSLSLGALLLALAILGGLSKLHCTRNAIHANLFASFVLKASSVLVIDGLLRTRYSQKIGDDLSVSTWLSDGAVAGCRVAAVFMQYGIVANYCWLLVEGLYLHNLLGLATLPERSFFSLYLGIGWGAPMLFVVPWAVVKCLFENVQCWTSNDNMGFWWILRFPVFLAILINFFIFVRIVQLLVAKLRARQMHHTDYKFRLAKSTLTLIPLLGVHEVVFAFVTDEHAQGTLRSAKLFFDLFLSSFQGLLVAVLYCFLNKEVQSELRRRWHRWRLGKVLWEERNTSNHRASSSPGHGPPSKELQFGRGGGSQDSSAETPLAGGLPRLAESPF

Row | EC50 [1] [nM] | EC50 [3] [nM] | EC50 [4] [nM] | Ratio GLP-1/Glucagon [4] | SMILES | AUC (% Ctrl) [2] [% Ctrl]
1 | 2.87 | 0.46 | 0.35 | 0.76 | CCCCCCCCCCCCCCCC(=O)N[C@@H](CCC(=O)NCCCC[C@H](NC(=O)[C@H](CO)NC(=O)[C@H](CC(=O)O)NC(=O)[C@H](CC(C)C)NC(=O)[C@H](Cc1ccc(O)cc1)NC(=O)[C@H](CCCNC(=N)N)NC(=O)[C@H](CO)NC(=O)[C@H](Cc1ccc(O)cc1)NC(=O)[C@H](CC(=O)O)NC(=O)[C@H](CO)NC(=O)[C@@H](NC(=O)[C@H](Cc1ccccc1)NC(=O)[C@@H](NC(=O)CNC(=O)[C@H](CCC(N)=O)NC(=O)[C@H](CO)NC(=O)[C@@H](N)Cc1c[nH]cn1)[C@@H](C)O)[C@@H](C)O)C(=O)N[C@@H](C)C(=O)N[C@@H](C)C(=O)N[C@@H](CCC(=O)O)C(=O)N[C@@H](CC(=O)O)C(=O)N[C@@H](Cc1ccccc1)C(=O)N[C@H](C(=O)N[C@@H](CCC(=O)O)C(=O)N[C@@H](Cc1c[nH]c2ccccc12)C(=O)N[C@@H](CC(C)C)C(=O)N[C@@H](CC(C)C)C(=O)N[C@@H](CCCNC(=N)N)C(=O)N[C@@H](C)C(N)=O)C(C)C)C(=O)O [Compound 6, H-HSQGTFTSDYSRYLDS-K(Hexadecanoyl-isoGlu)-AAEDFVEWLLRA-NH2] (H-HSQGTFTSDYSRYLDSK([γGlu-Palmitoyl])AAEDFVEWLLRA-NH2) | 50
2 | 0.67 | 0.98 | 0.51 | 0.52 | CCCCCCCCCCCCCCCC(=O)N[C@@H](CCC(=O)NCCCC[C@H](NC(=O)[C@H](CO)NC(=O)[C@H](CC(=O)O)NC(=O)[C@H](CC(C)C)NC(=O)[C@H](Cc1ccc(O)cc1)NC(=O)[C@H](CCCCN)NC(=O)[C@H](CO)NC(=O)[C@H](Cc1ccc(O)cc1)NC(=O)[C@H](CC(=O)O)NC(=O)[C@H](CO)NC(=O)[C@@H](NC(=O)[C@H](Cc1ccccc1)NC(=O)[C@@H](NC(=O)CNC(=O)[C@H](CCC(N)=O)NC(=O)C(C)(C)NC(=O)[C@@H](N)Cc1c[nH]cn1)[C@@H](C)O)[C@@H](C)O)C(=O)N[C@@H](C)C(=O)N[C@@H](C)C(=O)N[C@@H](Cc1c[nH]cn1)C(=O)N[C@@H](CC(=O)O)C(=O)N[C@@H](Cc1ccccc1)C(=O)N[C@H](C(=O)N[C@@H](CCC(=O)O)C(=O)N[C@@H](Cc1c[nH]c2ccccc12)C(=O)N[C@@H](CC(C)C)C(=O)N[C@@H](CC(C)C)C(=O)N[C@@H](CO)C(=O)N[C@@H](C)C(=O)O)C(C)C)C(=O)O [Compound 13, H-H-Aib-QGTFTSDYSKYLDS-K(Hexadecanoyl-isoGlu)-AAHDFVEWLLSA-OH] | 55
3 | 0.24 | 0.43 | 0.37 | 0.86 | CCCCCCCCCCCCCCCC(=O)N[C@@H](CCC(=O)NCCCC[C@H](NC(=O)[C@H](CO)NC(=O)[C@H](CC(=O)O)NC(=O)[C@H](CC(C)C)NC(=O)[C@H](Cc1ccc(O)cc1)NC(=O)[C@H](CCCNC(=N)N)NC(=O)[C@H](CO)NC(=O)[C@H](Cc1ccc(O)cc1)NC(=O)[C@H](CC(=O)O)NC(=O)[C@H](CO)NC(=O)[C@@H](NC(=O)[C@H](Cc1ccccc1)NC(=O)[C@@H](NC(=O)CNC(=O)[C@H](CCC(N)=O)NC(=O)[C@H](CO)NC(=O)[C@@H](N)Cc1c[nH]cn1)[C@@H](C)O)[C@@H](C)O)C(=O)N[C@@H](C)C(=O)N[C@@H](C)C(=O)N[C@@H](Cc1c[nH]cn1)C(=O)N[C@@H](CC(=O)O)C(=O)N[C@@H](Cc1ccccc1)C(=O)N[C@H](C(=O)N[C@@H](CCC(=O)O)C(=O)N[C@@H](Cc1c[nH]c2ccccc12)C(=O)N[C@@H](CC(C)C)C(=O)N[C@@H](CC(C)C)C(=O)N[C@@H](CO)C(=O)N[C@@H](C)C(N)=O)C(C)C)C(=O)O [Compound 12, H-HSQGTFTSDYSRYLDS-K(Hexadecanoyl-isoGlu)-AAHDFVEWLLSA-NH2] (H-HSQGTFTSDYSRYLDSK([γGlu-Palmitoyl])AAHDFVEWLLSA-NH2) | 56
